Measurements: patent EP0592600B1, “PROTEINS S POLYPEPTIDES AND USES THEREOF” (THE SCRIPPS RESEARCH INSTITUTE, priority 1991, dated 1993)
Peptide text beside a SMILES is read from it.

Legend:
C4BP = target: T1, C4BP (Homo sapiens, UniProt P04003+P20851); conditions: in vitro; cited from earlier work
T1 sequence (P04003 49-597): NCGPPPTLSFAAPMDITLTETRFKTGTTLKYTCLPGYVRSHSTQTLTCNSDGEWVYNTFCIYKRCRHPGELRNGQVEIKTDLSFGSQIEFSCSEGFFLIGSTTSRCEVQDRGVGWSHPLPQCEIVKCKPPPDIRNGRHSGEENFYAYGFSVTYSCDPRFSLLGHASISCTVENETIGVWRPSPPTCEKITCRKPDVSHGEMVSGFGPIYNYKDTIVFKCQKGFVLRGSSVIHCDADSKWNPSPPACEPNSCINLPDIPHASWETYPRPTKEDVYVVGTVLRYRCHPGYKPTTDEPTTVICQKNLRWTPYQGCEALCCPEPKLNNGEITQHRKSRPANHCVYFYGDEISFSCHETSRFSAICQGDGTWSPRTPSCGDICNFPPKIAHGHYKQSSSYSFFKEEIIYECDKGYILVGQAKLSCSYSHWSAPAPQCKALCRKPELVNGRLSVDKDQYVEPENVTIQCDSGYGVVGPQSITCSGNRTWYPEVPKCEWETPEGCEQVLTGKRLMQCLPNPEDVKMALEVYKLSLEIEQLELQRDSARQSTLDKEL
T1 sequence (P20851 18-252): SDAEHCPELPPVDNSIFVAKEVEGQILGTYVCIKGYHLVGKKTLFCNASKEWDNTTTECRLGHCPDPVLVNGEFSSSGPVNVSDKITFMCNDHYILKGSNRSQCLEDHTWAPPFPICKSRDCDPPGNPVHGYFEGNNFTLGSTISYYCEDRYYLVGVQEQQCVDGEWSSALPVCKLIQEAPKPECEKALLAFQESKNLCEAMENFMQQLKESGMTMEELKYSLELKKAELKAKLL

PS:C4BP complex [1] = target: T2, PS:C4BP complex (Homo sapiens, UniProt P04003+P20851); assay: Peptide inhibition of binding of b-C4BP to PS-coated wells; conditions: b-C4BP 1 µg/ml, PS-coated wells, peptide 0 - 500 µM
T2 construct: Purified human C4BP was obtained from 5 liters (1) of human citrated plasma; from tissue; host or cells: human citrated plasma (C4BP); protein S per Schwarz et al
T2 sequence (P04003 49-597): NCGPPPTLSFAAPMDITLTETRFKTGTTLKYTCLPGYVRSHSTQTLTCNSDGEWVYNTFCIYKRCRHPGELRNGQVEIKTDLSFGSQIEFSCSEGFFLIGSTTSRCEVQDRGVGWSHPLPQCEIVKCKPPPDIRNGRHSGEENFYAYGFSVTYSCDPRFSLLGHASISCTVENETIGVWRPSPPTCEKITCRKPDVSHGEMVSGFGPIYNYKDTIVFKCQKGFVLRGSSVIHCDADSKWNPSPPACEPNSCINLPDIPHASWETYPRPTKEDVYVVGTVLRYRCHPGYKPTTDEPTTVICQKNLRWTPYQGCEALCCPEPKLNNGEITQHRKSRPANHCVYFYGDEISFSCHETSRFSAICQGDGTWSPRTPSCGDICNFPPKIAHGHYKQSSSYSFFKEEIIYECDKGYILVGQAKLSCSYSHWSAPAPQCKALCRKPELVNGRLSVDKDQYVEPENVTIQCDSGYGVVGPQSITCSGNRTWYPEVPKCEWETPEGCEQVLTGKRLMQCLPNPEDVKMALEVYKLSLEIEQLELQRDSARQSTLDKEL
T2 sequence (P20851 18-252): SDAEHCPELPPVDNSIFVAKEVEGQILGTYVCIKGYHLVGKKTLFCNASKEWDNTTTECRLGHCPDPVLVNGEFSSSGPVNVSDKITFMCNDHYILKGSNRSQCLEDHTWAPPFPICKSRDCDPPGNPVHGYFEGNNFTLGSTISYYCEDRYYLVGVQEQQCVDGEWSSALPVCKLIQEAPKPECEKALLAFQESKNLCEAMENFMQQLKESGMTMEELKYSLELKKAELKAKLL
Procedure: An alternative approach was used to test the ability of the peptides, PSP-loop and PSP-428K, in comparison with that seen with the PSP-12 peptide, in inhibiting the binding of C4BP to PS. For this assay, the microtiter wells were coated with purified PS diluted to a concentration of 10 µg/ml in carbonate-coating buffer as described above. The wells were maintained to allow the PS to bind to the well walls. After the maintenance period, the wells were blocked also as described above. The selected PSP peptides were separately admixed at various concentrations ranging from 0 - 500 µM with biotinylated-C4BP (b-C4BP) at a concentration of 1 µg/ml. The admixtures were maintained on a fluid phase plate for 2 hours at room temperature to form peptide-C4BP complexes.
Fifty µl of the complexed admixtures were separately admixed to the prepared C4BP-coated wells and maintained for 1 hour at room temperature. Thereafter, the plate was washed and processed for developing as described above.

PS:C4BP complex [2] = target: T2, PS:C4BP complex; assay: Fluid-phase peptide inhibition of b-PS binding to C4BP, detected on anti-C4BP polyclonal antibody-coated plates; conditions: compared with PSP-loop
Procedure: (§1) An alternative approach was used to test the ability of the peptides, PSP-loop, PSP-424K and PSP-428K, in comparison with that seen with the PSP-12 peptide, in inhibiting the binding of PS to C4BP, the result of which was detected on polyclonal antibody-coated plates. For this assay, C4BP, biotinylated-PS (b-PS) and PSP peptides were admixed together at the respective concentrations of 3 µg/ml, 0.6 µg/ml and at a range of 0 - 500 µM (V:V:V). The admixtures were maintained for 2 hours at room temperature on a fluid phase plate to allow the binding and/or inhibition thereof of PS to C4BP by the PS-derived peptides. After the maintenance period, 50 µl of the admixture were separately admixed to wells previously coated with 10 µg/ml of anti-C4BP IgG polyclonal antibody. The admixtures were maintained for 1 hour at room temperature to allow for the binding of C4BP to C4BP-antibody-coated plates. The binding of biotinylated complexes to the antibody-coated plates was detected as described in Example 5Aii.

PS:C4BP complex [3] = target: T2, PS:C4BP complex; assay: Fluid-phase peptide inhibition of PS binding to b-C4BP, detected on MAb S-7-coated plates; conditions: b-C4BP 0.5 µg/ml, PS 1.0 µg/ml, peptide 0 - 500 µM
Procedure: as §1, with “monoclonal” for “polyclonal”, “biotinylated-C4BP (b-C4BP), PS” for “C4BP, biotinylated-PS (b-PS)”, “0.5” for “3”, “1.0” for “0.6”, “MAb S-7 (ATCC No. HB 80819).” for “anti-C4BP IgG polyclonal antibody.”, “MAb S-7-antibody-coated” for “C4BP-antibody-coated”

Molecule | effect on the interaction of protein S with C4BP (C4BP) | IC90 (PS:C4BP complex [1]; read-out: IC90) | IC50 (PS:C4BP complex [1]; read-out: half-maximal inhibitory concentration (IC50)) | inhibition of the binding of b-PS to C4BP (PS:C4BP complex [2]) | IC50 (PS:C4BP complex [3]) | IC90 (PS:C4BP complex [3]; read-out: IC90)
GVQLDLDEAI [synthetic peptide derived from the carboxy terminal region of protein S (residues 605 to 614 of mature PS)] | inhibits the interaction of protein S with C4BP in vitro | – | – | – | – | –
CC[C@H](C)[C@H](NC(=O)CNC(=O)[C@@H](N)CO)C(=O)N[C@@H](CCCCN)C(=O)N[C@@H](CCCCN)C(=O)N[C@H](C(=O)N[C@H](C(=O)N[C@@H](CCC(N)=O)C(=O)N[C@@H](CCC(=O)O)C(=O)N[C@@H](CCCCN)C(=O)N[C@@H](CCC(N)=O)C(=O)N[C@@H](CC(N)=O)C(=O)N[C@@H](CCCCN)C(=O)N[C@@H](CS)C(N)=O)[C@@H](C)CC)[C@@H](C)CC [PSP-424K] (H-SGIKKIIQEKQNKC-NH2) | – | ~250 µM | ~50 µM | also inhibitory but with lower effectiveness | ~50 µM | ~250 µM
